Laboratory results: patent publication US20260000676A1, “CHROMAN DERIVATIVES AS ESTROGEN RECEPTOR DEGRADERS” (THE REGENTS OF THE UNIVERSITY OF MICHIGAN, priority 2022, published 2026)
Counter-ions that a name gives are not always drawn.

How the values were obtained:
[1] = target: T1, ER (Homo sapiens (Human), UniProt P03372); test: In-cell western (ICW) ER degradation assay in MCF-7 cells; type: cell-based; conditions: MCF7, 16 hrs; for Dmax: MCF7, maximal ER degradation; for DC50: ER degradation
Procedure: (§1) ERa degradative activity of compounds can be assessed in MCF-7 and T47D Cells. MCF-7 and T47D cell are seeded and are subsequently treated with the compounds at certain concentrations (e.g., 0.02 to 300 nM). DMSO can be used as vehicle control. Cells are fixed and are blocked with Intercept (PBS) Blocking Buffer (e.g., Li-COR, Odyssey Blocking Buffer), and are stained with ER (e.g., 1:500, Cell signaling) primary antibody for overnight at cold room. Secondary Antibody (e.g., IRDye 800CW Goat anti-Rabbit IgG) and CellTag 700 Stain are added in Intercept (PBS) Blocking Buffer. Finally, cell plate is placed in incubator to dry. Image and signal are captured on Odyssey® DLx Imaging System.
(§2) Day 3: After 16 hrs of compounds treatment, cells were fixed by 4% PFA and permeabilized with elution buffer (0.1% Triton X-100 in 1% PBS Solution). Subsequently, cells were blocked with Intercept (PBS) Blocking Buffer (Li-COR, Odyssey Blocking Buffer), and were stained with ER (1:500, Cell signaling) primary antibody for overnight at cold room.
(§3) Day 4: Remove the buffer, add IRDye 800CW Goat anti-Rabbit IgG Secondary Antibody (1:2000) and CellTag 700 Stain (1:500) in Intercept (PBS) Blocking Buffer. Finally, cell plate is placed in incubator to dry. Image and signal were captured on Odyssey® DLx Imaging System.

[2] = target: T1, ER; test: In-cell western (ICW) ER degradation assay in T47D cells; type: cell-based; conditions: 16 hrs; for Dmax: maximal ER degradation; for DC50: ER degradation
Procedure: as §1, §2, §3

T1 sequence (P03372 whole entry): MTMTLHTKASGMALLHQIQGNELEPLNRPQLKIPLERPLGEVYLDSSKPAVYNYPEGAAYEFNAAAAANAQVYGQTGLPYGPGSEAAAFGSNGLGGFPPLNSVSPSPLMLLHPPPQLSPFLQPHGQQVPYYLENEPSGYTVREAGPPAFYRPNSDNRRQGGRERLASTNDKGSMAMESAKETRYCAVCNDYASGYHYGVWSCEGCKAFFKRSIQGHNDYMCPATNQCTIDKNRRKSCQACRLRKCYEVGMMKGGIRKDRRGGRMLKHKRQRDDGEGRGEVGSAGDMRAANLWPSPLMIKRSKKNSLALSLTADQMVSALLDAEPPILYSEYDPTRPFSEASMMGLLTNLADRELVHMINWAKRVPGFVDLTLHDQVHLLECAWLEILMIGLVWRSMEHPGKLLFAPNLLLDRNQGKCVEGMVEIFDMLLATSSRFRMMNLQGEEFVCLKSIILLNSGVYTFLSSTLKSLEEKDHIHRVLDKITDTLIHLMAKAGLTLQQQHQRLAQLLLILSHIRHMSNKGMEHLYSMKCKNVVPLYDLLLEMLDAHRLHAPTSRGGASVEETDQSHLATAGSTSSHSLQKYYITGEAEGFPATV

Compound | Dmax [1] [%] | Dmax [2] [%] | DC50 [1] [nM] | DC50 [2] [nM]
COc1ccc([C@H]2COc3cc(O)ccc3[C@H]2c2ccc(N3CCC(CN4CCN5c6ccc7c(c6OC[C@H]5C4)CN(C4CCC(=O)NC4=O)C7=O)CC3)cc2)cc1 (single isomer, unassigned) [Compound A16] | 50 to 75 |  |  | 
COc1cccc([C@H]2COc3cc(O)ccc3[C@H]2c2ccc(N3CCC(CN4CCN5c6ccc7c(c6OC[C@H]5C4)CN(C4CCC(=O)NC4=O)C7=O)CC3)cc2)c1 (single isomer, unassigned) [Compound A33, 3-((R)-7-((1-(4-((3S,4R)-7-hydroxy-3-(3-methoxyphenyl)chroman-4-yl)phenyl)piperidin-4-yl)methyl)-1-oxo-1,3,5,5a,6,7,8,9-octahydro-2H-pyrazino[1′,2′:4,5][1,4]oxazino[2,3-e]isoindol-2-yl)piperidine-2,6-dione] | 50 to 75 | 50 to 75 |  | 
O=C1CCC(N2Cc3cc4c(cc3C2=O)OC[C@@H]2CN(CC3CCN(c5ccc([C@@H]6c7ccc(O)cc7OC[C@@H]6c6ccccc6)cn5)CC3)CCN42)C(=O)N1 (single isomer, unassigned) [Compound A70, 3-((S)-3-((1-(5-((3S,4R)-7-hydroxy-3-phenylchroman-4-yl)pyridin-2-yl)piperidin-4-yl)methyl)-8-oxo-1,2,3,4,4a,5,8,10-octahydro-9H-pyrazino[1′,2′:4,5][1,4]oxazino[2,3-f]isoindol-9-yl)piperidine-2,6-dione] | < 25 | 25 to 50 |  | 
O=C1CCC(N2Cc3cc4c(cc3C2=O)OC[C@@H]2CN(CC3CCN(c5ccc([C@@H]6c7ccc(O)cc7OC[C@@H]6c6ccccc6)cc5F)CC3)CCN42)C(=O)N1 (single isomer, unassigned) [Compound A2] | 50 to 75 |  |  | 
COc1ccc([C@H]2COc3cc(O)ccc3[C@H]2c2ccc(N3CCC(CN4CCN5c6ccc7c(c6OC[C@H]5C4)CN(C4CCC(=O)NC4=O)C7=O)CC3)cc2)cc1 (single isomer, unassigned) [Compound A16, 3-((R)-7-((1-(4-((3S,4R)-7-hydroxy-3-(4-methoxyphenyl)chroman-4-yl)phenyl)piperidin-4-yl)methyl)-1-oxo-1,3,5,5a, 6,7,8,9-octahydro-2H-pyrazino[1′,2′:4,5][1,4]oxazino[2,3-e]isoindol-2-yl)piperidine-2,6-dione] |  |  | < 1 | 
O=C1CCC(N2Cc3cc4c(cc3C2=O)OC[C@@H]2CN(CC3CCN(c5ccc([C@@H]6c7ccc(O)cc7OC[C@@H]6c6ccccc6)cc5)CC3)CCN42)C(=O)N1 (single isomer, unassigned) [Compound A1] | 50 to 75 |  | 1 to 10 | 
O=C1CC[C@@H](N2Cc3c(ccc4c3OCC43CCN(CC4CC5(CCN(c6ccc([C@H]7c8ccc(O)cc8OC[C@H]7c7ccccc7)cc6)CC5)C4)CC3)C2=O)C(=O)N1 [Compound A143, (R)-3-(1′-((7-(4-((3R,4S)-7-hydroxy-3-phenylchroman-4-yl)phenyl)-7-azaspiro[3.5]nonan-2-yl)methyl)-6-oxo-6,8-dihydro-2H,7H-spiro[furo[2,3-e]isoindole-3,4′-piperidin]-7-yl)piperidine-2,6-dione] | 25 to 50 | 25 to 50 | 10 to 100 | 10 to 100
COc1cc(N2CCC(CN3CCN4c5ccc6c(c5OC[C@@H]4C3)CN([C@@H]3CCC(=O)NC3=O)C6=O)CC2)ccc1[C@H]1c2ccc(O)cc2OC[C@H]1c1ccccc1 (single isomer, unassigned) [Compound A121, (R)-3-((S)-7-((1-(4-((3R,4S)-7-hydroxy-3-phenylchroman-4-yl)-3-methoxyphenyl)piperidin-4-yl)methyl)-1-oxo-1,3,5,5a, 6,7,8,9-octahydro-2H-pyrazino[1′,2′:4,5][1,4]oxazino[2,3-e]isoindol-2-yl)piperidine-2,6-dione] |  |  | < 1 | < 1
O=C1CCC(N2Cc3cc4c(cc3C2=O)OCC42CCN(CC3CC4(CCN(c5ccc([C@@H]6c7ccc(O)cc7OC[C@@H]6c6ccccc6)cc5)CC4)C3)CC2)C(=O)N1 (stereo partly drawn) [Compound A71, 3-(1′-((7-(4-((3S,4R)-7-hydroxy-3-phenylchroman-4-yl)phenyl)-7-azaspiro[3.5]nonan-2-yl)methyl)-7-oxo-5,7-dihydro-2H,6H-spiro[furo[2,3-f]isoindole-3,4′-piperidin]-6-yl)piperidine-2,6-dione] | 50 to 75 | 50 to 75 | < 1 | < 1
O=C1CCC(Nc2ccc3c(c2)OC[C@H]2CN(CC4CCN(c5ccc([C@@H]6c7ccc(O)cc7OC[C@@H]6c6ccccc6)cc5)CC4)CCN32)C(=O)N1 (single isomer, unassigned) [Compound A91, 3-(((R)-3-((1-(4-((3S,4R)-7-hydroxy-3-phenylchroman-4-yl)phenyl)piperidin-4-yl)methyl)-1,2,3,4,4a,5-hexahydrobenzo[b]pyrazino[1,2-d][1,4]oxazin-8-yl)amino)piperidine-2,6-dione hydrochloride] | 50 to 75 | 50 to 75 |  | 
O=C1CC[C@@H](N2Cc3cc4c(cc3C2=O)OC[C@H]2CN(CC3COC5(CCN(c6ccc(C7c8ccc(O)cc8OCC7c7ccccc7)cc6)CC5)C3)CCN42)C(=O)N1 (stereo in doubt) [Compound A139, (3R)-3-((4aR)-3-((8-(4-((3R,4S)-7-hydroxy-3-phenylchroman-4-yl)phenyl)-1-oxa-8-azaspiro[4.5]decan-3-yl)methyl)-8-oxo-1,2,3,4,4a, 5,8,10-octahydro-9H-pyrazino[1′,2′:4,5][1,4]oxazino[2,3-f]isoindol-9-yl)piperidine-2,6-dione] | 50 to 75 | 50 to 75 | < 1 | < 1
O=C1CCC(N2Cc3cc4c(cc3C2=O)OCC42CCN(CC3CCN(c4ccc([C@@H]5c6ccc(O)cc6OC[C@@H]5c5ccccc5)cc4)CC3)CC2)C(=O)N1 (stereo partly drawn) [Compound A86, 3-(1′-((1-(4-((3S,4R)-7-hydroxy-3-phenylchroman-4-yl)phenyl)piperidin-4-yl)methyl)-7-oxo-5,7-dihydro-2H,6H-spiro[furo[2,3-f]isoindole-3,4′-piperidin]-6-yl)piperidine-2,6-dione] |  | 25 to 50 |  | < 1
O=C1CCC(N2C(=O)c3cc4c(cc3C2=O)CN(CC(=O)N2CCC3(CC2)CCN(c2ccc([C@@H]5c6ccc(O)cc6OC[C@@H]5c5ccccc5)cc2)CC3)C4)C(=O)N1 (single isomer, unassigned) [Compound A3] | 25 to 50 |  | 1 to 10 | 
O=C1CC[C@@H](N2Cc3c(ccc4c3OC[C@@H]3CN(CC5COC6(CCN(c7ccc([C@@H]8c9ccc(O)cc9OC[C@@H]8c8ccccc8)cc7F)CC6)C5)CCN43)C2=O)C(=O)N1 (single isomer, unassigned) [Compound A158, (3R)-3-((5aS)-7-((8-(2-fluoro-4-((3S,4R)-7-hydroxy-3-phenylchroman-4-yl)phenyl)-1-oxa-8-azaspiro[4.5]decan-3-yl)methyl)-1-oxo-1,3,5,5a,6,7,8,9-octahydro-2H-pyrazino[1′,2′:4,5][1,4]oxazino[2,3-e]isoindol-2-yl)piperidine-2,6-dione] | 50 to 75 | ≥ 75 |  | 
O=C1CCC(N2Cc3cc4c(cc3C2=O)OC[C@@H]2CN(CC3CCN(c5ccc([C@@H]6c7ccc(O)cc7OC[C@@H]6c6ccccc6)cc5F)CC3)CCN42)C(=O)N1 (single isomer, unassigned) [Compound A2, 3-((S)-3-((1-(2-fluoro-4-((3S,4R)-7-hydroxy-3-phenylchroman-4-yl)phenyl)piperidin-4-yl)methyl)-8-oxo-1,2,3,4,4a, 5,8,10-octahydro-9H-pyrazino[1′,2′:4,5][1,4]oxazino[2,3-f]isoindol-9-yl)piperidine-2,6-dione] |  |  | 1 to 10 | 
COc1cc(N2CCC(CN3CCC(c4ccc(N[C@H]5CCC(=O)NC5=O)cc4)CC3)CC2)ccc1[C@@H]1c2ccc(O)cc2OC[C@@H]1c1ccccc1 (stereo in doubt) [Compound A149, (S)-3-((4-(1-((1-(4-((3S,4R)-7-hydroxy-3-phenylchroman-4-yl)-3-methoxyphenyl)piperidin-4-yl)methyl)piperidin-4-yl)phenyl)amino)piperidine-2,6-dione] | 50 to 75 | 50 to 75 | < 1 | < 1
O=C1CCC(N2Cc3cc4c(cc3C2=O)OCC42CCN(CC3CC4(CCN(c5ccc([C@H]6c7ccc(O)cc7OC[C@H]6c6ccccc6)cn5)CC4)C3)CC2)C(=O)N1 (stereo partly drawn) [Compound A123, 3-(1′-((7-(5-((3R,4S)-7-hydroxy-3-phenylchroman-4-yl)pyridin-2-yl)-7-azaspiro[3.5]nonan-2-yl)methyl)-7-oxo-5,7-dihydro-2H,6H-spiro[furo[2,3-f]isoindole-3,4′-piperidin]-6-yl)piperidine-2,6-dione] | 50 to 75 | 50 to 75 | < 1 | < 1
O=C1CC[C@@H](N2Cc3c(ccc4c3OC[C@H]3CN(CC5CC6(CCN(c7ccc([C@@H]8c9ccc(O)cc9OC[C@@H]8c8ccccc8)cc7)CC6)C5)CCN43)C2=O)C(=O)N1 (single isomer, unassigned) [Compound A89] | ≥ 75 | ≥ 75 | < 1 | < 1
